Results from PubChem BioAssay AID330 (DTP/NCI, 2004).
Several values for one entry are separate records, joined by “and”; a condition that tells them apart may be missing. Identical values can stand only once. Inconclusive results and toxic doses are left out.

Test system: P388 leukemia ip, CD2F1 mice, survival T/C
Assay: NCI In Vivo Anticancer Drug Screen. Data for tumor model P388 Leukemia (intraperitoneal) in CD2F1 (CDF1) mice
Conditions: endpoint: median survival time, higher = longer survival
Outline: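 Mice carrying the transplanted tumor received test compound or vehicle. Survival was recorded in each group, and the value is the treated-group measurement divided by that of the vehicle-treated control group.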

[1] = dose: 50.0 mg/kg/injection, schedule: Q01DX009 (ip), vehicle: saline with Tween-80
[2] = dose: 100.0 mg/kg/injection, schedule: Q01DX009 (ip), vehicle: saline with Tween-80
[3] = dose: 200.0 mg/kg/injection, schedule: Q01DX009 (ip), vehicle: saline with Tween-80
[4] = dose: 50.0 mg/kg/injection, schedule: Q01DX005 (ip), vehicle: saline with Tween-80
[5] = dose: 100.0 mg/kg/injection, schedule: Q01DX005 (ip), vehicle: saline with Tween-80
[6] = dose: 200.0 mg/kg/injection, schedule: Q01DX005 (ip), vehicle: saline with Tween-80

For CCOC(=O)c1ccccc1OP(=O)(N(C)C)N(C)C, the T/C [1] was 99 % of control and 100 % of control and 108 % of control, the T/C [2] was 99 % of control and 109 % of control and 97 % of control and the T/C [3] was 99 % of control and 103 % of control and 109 % of control.
c1ccc(Cn2cccc/c2=N/C(=NC2CCCCC2)NC2CCCCC2)cc1 was tested, and the T/C (dose: 1.56 mg/kg/injection, schedule: Q01DX001 (ip), vehicle: Klucel (hydroxypropylcellulose) (HPC)) was 105 % of control, the T/C (dose: 3.12 mg/kg/injection, schedule: Q01DX001 (ip), vehicle: Klucel (hydroxypropylcellulose) (HPC)) was 99 % of control and the T/C (dose: 6.25 mg/kg/injection, schedule: Q01DX001 (ip), vehicle: Klucel (hydroxypropylcellulose) (HPC)) was 99 % of control. For the same compound, the T/C (dose: 25.0 mg/kg/injection, schedule: Q01DX001 (ip), vehicle: Klucel (hydroxypropylcellulose) (HPC)) was 98 % of control.
[Br][Sn]([Br])([CH2]CC[CH2][Sn]([Br])([Br])[c]1ccccc1)[c]1ccccc1 was tested, and the T/C (dose: 12.5 mg/kg/injection, schedule: Q01DX005 (ip), vehicle: Klucel (hydroxypropylcellulose) (HPC)) was 101 % of control, the T/C (dose: 25.0 mg/kg/injection, schedule: Q01DX005 (ip), vehicle: Klucel (hydroxypropylcellulose) (HPC)) was 117 % of control and the T/C (dose: 50.0 mg/kg/injection, schedule: Q01DX005 (ip), vehicle: Klucel (hydroxypropylcellulose) (HPC)) was 115 % of control and 117 % of control.
With O=S(=O)(CCl)NCCCl the T/C [1] was 100 % of control, the T/C [2] was 106 % of control and the T/C [3] was 106 % of control.
For CCOc1cc(/C=N\Nc2nncn2N)c(C)cc1N(CCCl)CCCl, the T/C (dose: 50.0 mg/kg/injection, schedule: Q04DX003 (ip), vehicle: saline sonified) was 116 % of control.
In the case of CCCCCCCC(=O)O[C@H]1[C@H]2[C@@H](CC1(C)C)C(=O)[C@]13O[C@H]1C(=O)[C@]1(CO1)[C@]23C, the T/C (dose: 2.2 mg/kg/injection, schedule: Q01DX009 (ip), vehicle: saline with Tween-80) is reported as 118 % of control, the T/C (dose: 5.0 mg/kg/injection, schedule: Q01DX009 (ip), vehicle: saline with Tween-80) is reported as 104 % of control and 122 % of control and the T/C (dose: 7.5 mg/kg/injection, schedule: Q01DX009 (ip), vehicle: saline with Tween-80) is reported as 118 % of control. For the same compound, the T/C (dose: 10.0 mg/kg/injection, schedule: Q01DX009 (ip), vehicle: saline with Tween-80) was 95 % of control and the T/C (dose: 10.0 mg/kg/injection, schedule: Q01DX009 (ip), vehicle: saline) was 105 % of control.
In the case of COc1ccc2ncc(C)c(CO)c2c1, the T/C [4] is reported as 116 % of control, the T/C [5] is reported as 102 % of control and the T/C [6] is reported as 98 % of control.
COc1cccc2c(NCCCN(C)CCCNc3c4ccccc4nc4c(OC)cccc34)c3ccccc3nc12 was tested, and the T/C (dose: 1.25 mg/kg/injection, schedule: Q01DX009 (ip), vehicle: water) was 120 % of control, the T/C (dose: 2.5 mg/kg/injection, schedule: Q01DX009 (ip), vehicle: water) was 124 % of control and the T/C (dose: 10.0 mg/kg/injection, schedule: Q01DX009 (ip), vehicle: water) was 163 % of control.
O=c1ccn2c(n1)OC1C(O)C(CO)OC12 (configuration not stated) was tested, and the T/C (dose: 50.0 mg/kg/injection, schedule: Q04DX003 (ip), vehicle: saline) was 100 % of control, the T/C (dose: 100.0 mg/kg/injection, schedule: Q04DX003 (ip), vehicle: saline) was 103 % of control and the T/C (dose: 200.0 mg/kg/injection, schedule: Q04DX003 (ip), vehicle: saline) was 102 % of control. The T/C (dose: 400.0 mg/kg/injection, schedule: Q04DX003 (ip), vehicle: saline) was 91 % of control.
CCN(CC)C(=O)c1nc(-c2cccc3ccccc23)no1 was tested, and the T/C (dose: 50.0 mg/kg/injection, schedule: Q01DX009 (ip), vehicle: Klucel (hydroxypropylcellulose) (HPC)) was 100 % of control, the T/C (dose: 100.0 mg/kg/injection, schedule: Q01DX009 (ip), vehicle: Klucel (hydroxypropylcellulose) (HPC)) was 97 % of control and the T/C (dose: 200.0 mg/kg/injection, schedule: Q01DX009 (ip), vehicle: Klucel (hydroxypropylcellulose) (HPC)) was 98 % of control.
COC1OC(CO)C(O)C(O)C1NC(C)=O (configuration not stated) was tested, and the T/C [4] was 99 % of control, the T/C [5] was 100 % of control and the T/C [6] was 104 % of control.
For CSc1nc(COC(=O)NC(C)C)c(COC(=O)NC(C)C)n1-c1ccccc1, the T/C (dose: 12.5 mg/kg/injection, schedule: Q01DX005 (ip), vehicle: Klucel + Tween-80) was 111 % of control, the T/C (dose: 25.0 mg/kg/injection, schedule: Q01DX005 (ip), vehicle: Klucel + Tween-80) was 101 % of control and the T/C (dose: 50.0 mg/kg/injection, schedule: Q01DX005 (ip), vehicle: Klucel + Tween-80) was 95 % of control. The T/C (dose: 100.0 mg/kg/injection, schedule: Q01DX005 (ip), vehicle: Klucel + Tween-80) was 97 % of control, the T/C (dose: 200.0 mg/kg/injection, schedule: Q01DX005 (ip), vehicle: Klucel + Tween-80) was 90 % of control and the T/C (dose: 400.0 mg/kg/injection, schedule: Q01DX005 (ip), vehicle: Klucel + Tween-80) was 100 % of control.
With COc1ccc(CCN)cc1 the T/C (dose: 50.0 mg/kg/injection, schedule: Q01DX009 (ip), vehicle: saline) was 101 % of control and 106 % of control.
